According to article PMC4098076 (Nature, 2014):

Biological target: T1, aryl hydrocarbon receptor (AhR) (Mus musculus, UniProt P30561)
T1 sequence (P30561 10-848): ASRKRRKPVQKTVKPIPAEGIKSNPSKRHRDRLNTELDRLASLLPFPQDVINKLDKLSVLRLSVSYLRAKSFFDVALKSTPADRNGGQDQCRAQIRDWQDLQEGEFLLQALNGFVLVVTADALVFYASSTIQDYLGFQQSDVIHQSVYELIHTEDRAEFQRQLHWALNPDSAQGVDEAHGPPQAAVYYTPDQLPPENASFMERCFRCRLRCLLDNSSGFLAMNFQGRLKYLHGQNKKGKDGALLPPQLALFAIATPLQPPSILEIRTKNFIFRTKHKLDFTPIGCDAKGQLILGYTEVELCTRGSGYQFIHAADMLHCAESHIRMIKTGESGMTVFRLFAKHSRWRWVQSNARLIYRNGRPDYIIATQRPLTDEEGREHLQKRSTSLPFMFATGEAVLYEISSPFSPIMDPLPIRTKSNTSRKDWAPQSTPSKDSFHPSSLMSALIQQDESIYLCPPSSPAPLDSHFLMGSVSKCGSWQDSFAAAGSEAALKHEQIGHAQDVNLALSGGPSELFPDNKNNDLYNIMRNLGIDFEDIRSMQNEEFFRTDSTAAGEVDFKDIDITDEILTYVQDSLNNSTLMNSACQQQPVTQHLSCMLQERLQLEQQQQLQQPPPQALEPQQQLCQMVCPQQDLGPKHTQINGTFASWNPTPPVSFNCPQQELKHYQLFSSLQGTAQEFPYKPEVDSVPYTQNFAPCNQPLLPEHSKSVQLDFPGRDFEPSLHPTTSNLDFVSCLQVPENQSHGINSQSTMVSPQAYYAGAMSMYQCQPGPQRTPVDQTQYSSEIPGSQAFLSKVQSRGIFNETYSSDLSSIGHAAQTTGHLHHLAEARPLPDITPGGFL
Assay: radioligand competition with [3H]TCDD
Assay type: binding

Ki: 21.6 µM
SMILES: Nc1ccccc1C(=O)C[C@H](N)C(=O)O [L-kynurenine]
